# Experimental data taken from PMC5603603, “Linoleic and palmitoleic acid block streptokinase-mediated plasminogen activation and reduce severity of invasive group A streptococcal infection” (Scientific Reports, 2017).
# “And” between values parts separate entries of the source, which are not always exact repeats. Identical values can stand only once.
# Assays:
# [1] = biological target: cluster 1 type streptokinase (Streptococcus pyogenes, UniProt P10520); format: biochemical, group A streptococcal strain A328; conditions: supernatant-based; for IC50: cluster 1; for fold lower IC50-values than TXA and EACA: cluster 1 type streptokinase
# Experimental: An overnight culture of the strain A328 (cluster 1 type) or A614 (cluster 2a type) was diluted 1:10 in pre-warmed THY medium and grown to an OD600 of around 0.5 at 37 °C. […] The pellet was resuspended in Tris-HCl buffer (50 mM Tris pH 7.5). Then inhibitory compounds (LA, PA, oleic, myristic, stearic, palmitic, arachidonic, arachidic, linolenic acid, TXA or EACA) were added. Stocks of TXA and EACA were prepared in PBS. Stocks of LA and PA were prepared in methanol and then diluted in PBS. Stocks of arachidic, oleic, arachidonic, myristic, palmitic, stearic and linolenic acid were prepared in 60% DMSO/PBS and then diluted in PBS. The untreated control received the same amount of PBS as in case of TXA and EACA as control or the same amount of methanol diluted in PBS as in case of LA and PA, respectively, or the same amount of DMSO diluted in PBS as in case of the other commercially available fatty acids. […] The assay was run at 37 °C. The absorption was measured at the beginning of the reaction and then every hour at 405 nm after 3 sec of shaking on a Tecan Sunrise ELISAReader using Magellan software. Each experiment was repeated three times. IC50 values were calculated using Microsoft® Excel software.
# [2] = biological target: cluster 2a type streptokinase (Streptococcus pyogenes, UniProt A0A288R465); test: biochemical; format: biochemical, group A streptococcal strain A614; conditions: supernatant-based; for IC50 / fold lower concentration for the same range of inhibition as oleic and linolenic acid: cluster 2a; for fold lower IC50-values than TXA and EACA: cluster 2a type streptokinase
# staphylokinase = biological target: T1, staphylokinase (Staphylococcus aureus, UniProt P68801); test: Plasminogen assay with staphylokinase as activator of plasminogen; format: biochemical; conditions: staphylokinase 2 µg/ml; compared to untreated control
# T1 construct: purchased Cedarlane Labs
# Experimental: Supernatant of an overnight culture of the GAS strain A614 was used as this strain secretes a cluster 2a type streptokinase. 75 µl of the culture supernatant was added to the wells of a 96well plate followed by 69 µl PBS, 5 µl S-2251 (10 mM stock solution, chromogenic substrate for the detection of plasmin, Chromogenix) and 1 µl plasminogen (1 mg/ml stock solution, Biopur or Sigma). 1 µl of each myxobacterial extract or each myxobacterial compound (dissolved in methanol, 1 mM) was added to test possible inhibition of plasminogen activation. The assay was run at 37 °C. The absorption was measured at the beginning of the reaction and then every hour at 405 nm after 3 sec of shaking on a Tecan Sunrise ELISA Reader using Magellan software. The reaction was finished when untreated samples had reached an OD405nm of about 1.
# The assay was conducted as described above using staphylokinase (Cedarlane Labs) as an activator of plasminogen (staphylokinase final concentration 2 µg/ml per well in 75 µl of PBS. Stocks of LA and PA were prepared in methanol and then diluted in PBS. The untreated control received the same amount of methanol diluted in PBS as in case of treatment with PA or LA. Each experiment was repeated three times.
# S. pyogenes strain A666 = test: Clotting assay, escape of streptococci from clot (cluster 2b type streptokinase); format: cell-based; conditions: 60 µg/ml, after 4 h, p < 0.05
# Experimental: (§1) To assess whether LA and PA influence the entrapment of bacteria within clots, a 50 ml overnight culture (THY medium) of the S. pyogenes strains AP1 or A666 was centrifuged at 4332 × g for 10 min. […] For clot induction, 100 µl citrate plasma, 100 µl of the respective bacterial suspension and 50 µl thrombin-reagent (Haemochrom Diagnostica) were used. […] Then clots were left untreated (treated with sodium citrate buffer only) or were treated with LA or PA (diluted in sodium citrate buffer). For clots formed with S. pyogenes strain A666, a final concentration of 60 µg/ml was used for both, LA and PA. For those formed with S. pyogenes strain AP1, a final concentration of 30 µg/ml was used. 50 µl of the supernatant of each sample were plated onto blood agar plates in serial dilutions at 0, 2 and 4 h after clot induction and incubated at 37 °C overnight. Colonies were counted the following day to assess the number of bacteria which had escaped the clot. […] Two independent experiments were performed. Standard deviations were calculated accordingly. Citrate plasma was obtained from healthy volunteers who gave their informed consent.
# S. pyogenes strain AP1 [3] = test: Clotting assay, escape of streptococci from clot (cluster 2a type streptokinase); format: cell-based; conditions: 30 µg/ml, after 4 h, p < 0.05
# Experimental: as §1
# S. pyogenes strain AP1 [4] = test: Invasive humanized plasminogen murine infection model; format: in vivo, Humanized Plg transgenic AlbPLG1 mice; conditions: 50 µg s.c. (approx. 2 mg/kg) once on day of infection; for Hazard ratio (Mantel-Haenszel) treated/untreated: 1 × 10^7 cfu AP1 s.c.; for survival time in comparison with the untreated group: p = 0.0021
# Experimental: All animal experiments were performed in strict accordance with the guidelines of the “European Convention for the Protection of Vertebrate Animals used for Experimental and other Scientific purposes”, with the “Australian Code of Practice for the Care and Use of Animals for Scientific Purposes” and with the “Guidelines for the Care and Use of Laboratory Animals” (National Health and Medical Research Council, Australia). All experiments conducted in Germany were approved by the ethical board of “Niedersächsisches Landesamt für Verbraucherschutz und Lebensmittelsicherheit”, Oldenburg, Germany (animal ethics no.: 33.9-42502-04-12/1009). All experiments conducted in Australia were approved by the University of Queensland Animal Ethics Committee, Brisbane, Australia (animal ethics no.: SCMB/ 553/12/NHMRC). Humanized Plg transgenic AlbPLG1 mice, heterozygous for the human Plg gene[6], were bred and used in the animal facility at the Helmholtz Centre for Infection Research or at the Australian Infectious Disease Research Centre. An overnight culture of the strain AP1 (in THY medium) was re-inoculated in fresh THY medium and grown until mid-log phase (OD 0.4–0.6). Then the bacteria were centrifuged at 4332 × g for 10 min and washed twice in PBS. They were resuspended in PBS and adjusted to an OD of 1.0. Sex- and age-matched (eight- to sixteen-week-old) groups of C57Bl6/J huPlg positive transgenic mice were infected s.c. with 1 × 10^7 cfu of S. pyogenes strain AP1. Cohorts of 15–16 mice were used (the experiment was performed four times with cohorts of 3–5 mice). The specific inoculum dose was administered in a 100 µl volume. Untreated mice received PBS subcutaneously (s.c.) as a control on the day of infection. Treated mice received either 50 µg of linoleic acid (diluted in PBS) or 50 µg of palmitoleic acid (diluted in PBS) s.c. on the day of infection. During the experiment mice were monitored for locomotion, behavior, appearance and weight. Mice were euthanized when they lost more than 20% of weight or when they reached a score of two for three of the following parameters: locomotion, appearance or behavior (authority regulations). The experiment ended after 7 days or after all mice had died.
# Significance was determined by using a two-tailed, paired student’s t-test. Survival data were analyzed using GraphPad Prism7 Software. Significance was determined by using a Mantel-Cox- and a Wilcoxon-Test.
# Sequence of cluster 1 type streptokinase (P00747 20-810): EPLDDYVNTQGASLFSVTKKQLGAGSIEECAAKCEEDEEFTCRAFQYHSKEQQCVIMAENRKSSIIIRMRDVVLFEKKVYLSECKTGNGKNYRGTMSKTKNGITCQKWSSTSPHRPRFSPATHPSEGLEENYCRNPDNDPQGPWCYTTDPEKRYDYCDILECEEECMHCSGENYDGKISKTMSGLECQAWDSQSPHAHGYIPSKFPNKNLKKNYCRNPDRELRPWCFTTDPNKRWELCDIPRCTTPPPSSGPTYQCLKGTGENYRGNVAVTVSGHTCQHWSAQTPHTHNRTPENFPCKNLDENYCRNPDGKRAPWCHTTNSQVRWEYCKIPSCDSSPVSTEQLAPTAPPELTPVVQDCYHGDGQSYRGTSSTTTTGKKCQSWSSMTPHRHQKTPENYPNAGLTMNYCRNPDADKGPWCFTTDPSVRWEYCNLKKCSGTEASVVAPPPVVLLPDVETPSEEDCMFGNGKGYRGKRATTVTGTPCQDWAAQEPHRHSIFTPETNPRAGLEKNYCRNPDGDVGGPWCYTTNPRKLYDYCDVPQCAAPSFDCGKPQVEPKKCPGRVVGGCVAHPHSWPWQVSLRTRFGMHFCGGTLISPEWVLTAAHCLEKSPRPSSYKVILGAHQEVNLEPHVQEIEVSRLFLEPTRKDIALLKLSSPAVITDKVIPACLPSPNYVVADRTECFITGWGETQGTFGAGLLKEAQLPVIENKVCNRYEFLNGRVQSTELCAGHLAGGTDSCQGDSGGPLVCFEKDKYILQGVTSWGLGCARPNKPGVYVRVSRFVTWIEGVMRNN
# Sequence of cluster 1 type streptokinase (P10520 27-440): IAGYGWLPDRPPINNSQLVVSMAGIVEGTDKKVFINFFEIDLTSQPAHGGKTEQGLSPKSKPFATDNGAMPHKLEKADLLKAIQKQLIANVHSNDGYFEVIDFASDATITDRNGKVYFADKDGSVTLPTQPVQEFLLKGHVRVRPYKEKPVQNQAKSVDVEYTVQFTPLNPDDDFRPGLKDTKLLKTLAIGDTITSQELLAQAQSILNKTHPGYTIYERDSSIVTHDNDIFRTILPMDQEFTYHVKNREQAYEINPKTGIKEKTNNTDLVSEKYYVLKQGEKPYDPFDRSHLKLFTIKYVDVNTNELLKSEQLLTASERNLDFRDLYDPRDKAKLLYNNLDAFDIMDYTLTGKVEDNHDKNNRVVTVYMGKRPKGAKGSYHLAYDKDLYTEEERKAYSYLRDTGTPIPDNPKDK
# T1 sequence (P68801 28-163): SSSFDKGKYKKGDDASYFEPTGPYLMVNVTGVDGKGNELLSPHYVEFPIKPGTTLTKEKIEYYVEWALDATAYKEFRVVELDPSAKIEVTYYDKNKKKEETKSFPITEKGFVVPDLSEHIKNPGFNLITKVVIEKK
SMILES,IC50 [1],fold lower IC50-values than TXA and EACA [1],IC50 [2],fold lower concentration for the same range of inhibition as oleic and linolenic acid [2],fold lower IC50-values than TXA and EACA [2],inhibition of staphylokinase-mediated plasminogen activation (staphylokinase),GAS escaped from the clot compared to the untreated clot (S. pyogenes strain A666),GAS escaped from the clot compared to the untreated clot (S. pyogenes strain AP1 [3]),Hazard ratio (Mantel-Haenszel) treated/untreated (S. pyogenes strain AP1 [4]),survival time in comparison with the untreated group (S. pyogenes strain AP1 [4])
"CCCCC/C=C\C/C=C\CCCCCCCC(=O)O [LA, linoleic acid]",46.6 µM and 46 µM,500–1000 fold,156 µM and 149 µM,3–4 fold,500–1000 fold,not inhibited,significantly lower amount of GAS escaped,significantly lower amount of GAS escaped,0.1429,significantly extended the survival time
"CCCCCC/C=C\CCCCCCCC(=O)O [PA, palmitoleic acid]",40.9 µM,500–1000 fold,91.6 µM and 105 µM,3–4 fold,500–1000 fold,not inhibited,significantly lower amount of GAS escaped,significantly lower amount of GAS escaped,0.1429,significantly extended the survival time
